Patent publication US9481871B2, “Nucleic acid encoding a polpeptide having aminotransferase activity, vectors and host cells comprising the nucleic acid” (KANEKA CORPORATION, priority 2010, dated 2016)
Like-named read-outs stand apart in the source and are kept apart here.

What was measured:
[1] = test system: TAT; type: biochemical, Arthrobacter sp. KNK04-25
[2] = test system: TAT; experiment: Specificity 3 to amino group donor with 1-benzyl-3-pyrrolidinone as receptor; type: biochemical, Arthrobacter sp. KNK04-25; conditions: amino group donor 290 mM, 1-benzyl-3-pyrrolidinone 29 mM; for Relative activity: pH 7.0, 30° C., 90 minutes, L-alanine = 100
Protocol: With the use of the cell-free extracts obtained in Example 5, the substrate specificity of TAT to an amino group donor was examined. Each reagent was added to enzyme solutions (200 μL each) so that the final concentrations were as specified in the following composition of the substrate solution. The volume of each reaction solution was adjusted to 400 μl with 0.1 M potassium phosphate buffer (pH 7.0). After 90 minutes of reaction at 30° C., 15 μL of 6N hydrochloric acid was added to stop the reaction. The thus obtained reaction solutions were analyzed by high performance liquid chromatography under the following conditions.
(§1) [Composition of Substrate Solution]
(§2) [High Performance Liquid Chromatography Quantitative Analysis Conditions] <Quantitative Analysis> • Column: Finepak SIL C18-T (JASCO Corporation) • Eluent: distilled water 945 mL/acetonitrile 555 mL/KH2PO4 7.5 g/SDS 2.16 g (adjusted with H3PO4 to pH 3.6) • Flow rate: 1 mL/minute • Detection: 254 nm • Column temperature: 40° C. <Analysis of Optical Purity>
Each reaction solution was treated with an appropriate amount of sodium carbonate so that it became basic, derivatized with dinitrobenzoyl chloride, and then analyzed under the following conditions. • Column: Chiralcel IA (Daicel Corporation) • Eluent: hexane/ethanol/diethylamine/acetonitrile=800/200/1/5 (volume ratio) • Flow rate: 0.8 mL/minute • Detection: 254 nm • Column temperature: 30° C.

[3] = test system: TAT; experiment: Specificity 2 to amino group donor: typical substrates of ω-amino acid transaminase; type: biochemical, Arthrobacter sp. KNK04-25; conditions: amino group donor 14 mM, 2-ketoglutaric acid 14 mM; for activity of the polypeptide for amino group donor (in words): pH 7.0; for Relative activity: pH 7.0, 30° C., 60 minutes, (S)-1-phenethylamine = 100
Protocol: (§3) Each reagent was added to the enzyme solution (100 μL each) so that the final concentrations were as specified in the following composition of the substrate solution. The volume of each reaction solution was adjusted to 400 μl with 0.1 M potassium phosphate buffer (pH 7.0). After 60 minutes of reaction at 30° C., 20 μL of 3N hydrochloric acid was added to stop the reaction. Next, 80 μL of a 0.2 M aqueous sodium carbonate solution and 200 μL of an acetone solution of 3.3 mg/mL Dabsyl chloride were each added to 20 μL of the thus obtained reaction solution, followed by 10 minutes of reaction at 70° C. Acetic acid (20 μL) was added to 50 μL of the reaction solution and then the solution was stirred. The resultant was analyzed by high performance liquid chromatography under the following conditions and thus the quantity of dabsylated glutamic acid was determined. In addition, the activity of an enzyme used in this assay was adjusted so that the amount of glutamic acid generated was 2.8 mM or less.
as §1
[High Performance Liquid Chromatography Analysis Conditions] • Column: YMC-Pack Pro C18 RS (YMC) • Eluent: acetonitrile/45 mM acetate buffer (pH 4.1)=35/65 (volume ratio) • Flow rate: 0.9 mL/minute • Detection: 254 nm • Column temperature: 30° C.

[4] = test system: TAT; experiment: Specificity to amino group donor (dabsylated glutamic acid, HPLC); type: biochemical, Arthrobacter sp. KNK04-25; conditions: amino group donor 14 mM, 2-ketoglutaric acid 14 mM; for activity of TAT for amino group donor (in words): pH 7.0; for Relative activity: pH 7.0, 30° C., 60 minutes, benzylamine = 100
Protocol: The substrate specificity of TAT to amino group donors was examined using the cell-free extracts obtained in Example 5.
as §3, with “solution (100 μL, each) so” for “solution (100 μL each) so”, “C., 20 μL, of 3N” for “C., 20 μL of 3N”, “Next, 80 μL, of a” for “Next, 80 μL of a”, “and 200 μL, of an” for “and 200 μL of an”, “to 20 μL, of the” for “to 20 μL of the”, “to 50 μL, of the” for “to 50 μL of the”
as §1
[High Performance Liquid Chromatography Analysis Conditions] • Column: Cosmosil 5C8-MS (NACALAI TESQUE, INC.) • Eluent: distilled water 2000 mL/acetonitrile 500 mL/methanol 500 ml/KH2PO4 6.1 g/H3PO4 2.5 g • Flow rate: 1 mL/minute • Detection: 254 nm • Column temperature: 30° C.

[5] = Activity for 1-benzyl-3-pyrrolidinone and optical purity of generated (S)-1-benzyl-3-aminopyrrolidine; type: biochemical; conditions: 57 mM 1-benzyl-3-pyrrolidinone, 57 mM (S)-1-phenethylamine, pH 7.0, 30° C., 2 hours, cell-free extract
Protocol: (Method for Determination of Activity for 1-benzyl-3-pyrrolidinone and Method for Measurement of Optical Purity of Generated (S)-1-benzyl-3-aminopyrrolidine)
Activity to catalyze transamination by acting on optically active (S)-1-phenethylamine and 1-benzyl-3-pyrrolidinone, so as to generate acetophenone and (S)-1-benzyl-3-aminopyrrolidine was examined. Each reagent was added to each cell-free extract obtained in Example 5 so that the final concentrations were as specified in the following composition of the substrate solution. After 2 hours of reaction at 30° C., the reaction solution was analyzed by HPLC under the following conditions.
as §1
as §2, with “Chromatography” for “Chromatography Quantitative”, “Purity> […]” for “Purity>”

[6] = amino group receptor 14 mM, (S)-1-phenethylamine 14 mM, pH 7.0, 30° C., 60 minutes, 2-ketoglutaric acid = 100

Molecule: CCCCC(C)=O [2-hexanone]
- Relative activity ([1]; […], 2-ketoglutaric acid = 100): 4%

Molecule: N[C@@H](CCC(=O)O)C(=O)O [L-glutamic acid]
- activity of TAT for amino group donor compared with L-alanine (in words) [2]: higher activity
- Relative activity [2]: 1650%

Molecule: CCCC(=O)CC(=O)OC [Methyl 3-oxohexanoate]
- Relative activity ([1]; […], 2-ketoglutaric acid = 100): 4%

Molecule: CCC(=O)CC [3-pentanone]
- Relative activity ([1]; […], 2-ketoglutaric acid = 100): 1%

Molecule: Cl.NCCC(N)C(=O)O (racemic) [±2,4-diaminobutyric acid·HCl]
- activity of the polypeptide for amino group donor (in words) [3]: did not exhibit activity
- Relative activity [3]: 0%

Molecule: CCCCCC(C)=O [2-heptanone]
- Relative activity ([1]; […], 2-ketoglutaric acid = 100): 3%

Molecule: CCCCN [n-butylamine]
- activity of TAT for amino group donor (in words) [4]: exhibited activity
- Relative activity [4]: 4%

Molecule: CCCC=O [Butylaldehyde]
- Relative activity [1, 6]: 6%

Molecule: NCc1ccccc1 [Benzylamine]
- activity of TAT for amino group donor (in words) [4]: exhibited activity
- Relative activity [4]: 100%

Molecule: O=CC(=O)O [Glyoxalic acid]
- activity of the polypeptide for amino group receptor (in words) [1]: exhibited activity
- Relative activity ([1]; […], 2-ketoglutaric acid = 100): 40%

Molecule: CCOC(=O)CC(C)=O [Ethyl acetoacetate]
- Relative activity ([1]; […], 2-ketoglutaric acid = 100): 2%

Molecule: NCCC(=O)O [β-alanine]
- activity of the polypeptide for amino group donor (in words) [3]: did not exhibit activity
- Relative activity [3]: 0%

Molecule: C[C@H](N)C(=O)O [L-alanine]
- Relative activity [2]: 100%

Molecule: CC(=O)C(=O)O [Pyruvic acid]
- activity of the polypeptide for amino group receptor (in words) [1]: exhibited activity
- Relative activity ([1]; […], 2-ketoglutaric acid = 100): 10%

Molecule: NCCCC(=O)O [4-aminobutyric acid]
- activity of the polypeptide for amino group donor (in words) [3]: did not exhibit activity
- Relative activity [3]: 0%

Molecule: O=C(O)C(=O)Cc1ccccc1 [Phenylpyruvic acid]
- Relative activity ([1]; […], 2-ketoglutaric acid = 100): 8%

Molecule: CCCC(=O)C(=O)O [2-keto-n-valeric acid]
- Relative activity [1, 6]: 3%

Molecule: CCC(=O)CC(=O)OC [Methyl 3-oxovalerate]
- Relative activity ([1]; […], 2-ketoglutaric acid = 100): 4%

Molecule: CC(=O)CCO [4-hydroxy butane-2-one]
- Relative activity ([1]; […], 2-ketoglutaric acid = 100): 0%

Molecule: CCC(C)=O [2-butanone]
- Relative activity ([1]; […], 2-ketoglutaric acid = 100): 0%

Molecule: CC(=O)c1ccccn1 [2-acetylpyridine]
- Relative activity ([1]; […], 2-ketoglutaric acid = 100): 60%

Molecule: NCCCCN [Putrescine·2HCl]
- activity of the polypeptide for amino group donor (in words) [3]: did not exhibit activity
- Relative activity [3]: 0%

Molecule: C[C@H](N)c1ccccc1 [(S)-α-phenethylamine]
- Relative activity [3]: 100%

Molecule: NCCCCCC(=O)O [6-aminocaproic acid]
- activity of the polypeptide for amino group donor (in words) [3]: did not exhibit activity
- Relative activity [3]: 0%

Molecule: O=C(O)CCC(=O)C(=O)O [2-ketoglutaric acid]
- activity of the polypeptide for amino group receptor (in words) ([1]; amino group receptor 14 mM, (S)-1-phenethylamine 14 mM): high activity
- Relative activity [1, 6]: 100%

Molecule: O=C1CN2CCC1CC2 [Quinuclidinone]
- Relative activity ([1]; pH 7): 0%

Molecule: NCCCCC(=O)O [5-aminovaleric acid]
- activity of the polypeptide for amino group donor (in words) [3]: did not exhibit activity
- Relative activity [3]: 0%

Molecule: CCC(=O)CC#N [3-oxopentanenitrile]
- Relative activity ([1]; […], 2-ketoglutaric acid = 100): 0%

Molecule: O=C1CCCc2ccccc21 [1-tetralone]
- Relative activity ([1]; […], 2-ketoglutaric acid = 100): 1%

Molecule: CCC(=O)C(=O)O [2-ketobutyric acid]
- Relative activity ([1]; […], 2-ketoglutaric acid = 100): 5%

Molecule: CCCC(C)=O [2-pentanone]
- Relative activity ([1]; […], 2-ketoglutaric acid = 100): 1%

Molecule: O=C1CCN(Cc2ccccc2)C1 [1-benzyl-3-pyrrolidinone]
- Relative activity ([1]; […], 2-ketoglutaric acid = 100): 20%

Molecule: O=C1CCc2ccccc2C1 [2-tetralone]
- Relative activity ([1]; […], 2-ketoglutaric acid = 100): 1%

Molecule: O=C(O)CC(=O)C(=O)O [Oxalacetic acid]
- Relative activity ([1]; […], 2-ketoglutaric acid = 100): 4%

Molecule: O=C(Cc1ccccc1)c1ccccc1 [Benzyl phenyl ketone]
- Relative activity [1, 6]: 0%

Molecule: CCCCC(=O)CC [3-heptanone]
- Relative activity ([1]; […], 2-ketoglutaric acid = 100): 5%

Molecule: N#CCC(=O)c1ccccc1 [α-cyanoacetophenone]
- Relative activity ([1]; […], 2-ketoglutaric acid = 100): 0%

Molecule: COc1ccc2c(c1)CC(=O)CC2 [7-methoxy-2-tetralone]
- Relative activity ([1]; […], 2-ketoglutaric acid = 100): 0%

Molecule: CC(C)=O [Acetone]
- Relative activity ([1]; […], 2-ketoglutaric acid = 100): 0%

Molecule: O=Cc1ccccc1 [Benzaldehyde]
- Relative activity ([1]; […], 2-ketoglutaric acid = 100): 70%

Molecule: Cl.NCCCC[C@H](N)C(=O)O [L-lysine·HCl]
- activity of the polypeptide for amino group donor (in words) [3]: did not exhibit activity
- Relative activity [3]: 0%

Molecule: CCC(C)N (racemic) [±2-butylamine]
- activity of TAT for amino group donor (in words) [4]: exhibited activity
- Relative activity [4]: 7%

B1: TAT: polypeptide having transamination activity from Arthrobacter sp. KNK04-25; amino acid sequence SEQ ID NO: 1 (protein, listed as Arthrobacter sp.)
chain: MSAITLESSLATFTRRFDVSAKLTELGKEVVPGGYSRNSFNFGPHAIYVESGDGAYISTVEGHRLLDLNNNFTVNVLGHNHPSVQRTLRGSIETGVSFGNPVALETELAQLLVERIPSIERVQFSCSASESCMSAVRVARAFTGRTKIAKFEGGYHGFTDPLQVSWHPDHDGDCGPDDAPKAIPDSGGIPAEDVANVVVLTQNDGEGTERILRAHASEIACVIVELESASGGLVTLEQDYVESLRELTSELGIVLIFDETVTLRAGYQGMQGDYGVAPDLTVMGKIIGGGFPLGAVGGSAEIMSVLESGLVSISGTHHGHKIALAAGISTMRELTQGAFDRLNGMATRVMEELNDWSSQRGSSFAVYGKGISHLAYGFMREPGLSIRTHRDYWRNFDGTGTQICSLELANRGFFPVARGDFSLSLPMSDDDITAFVETTKEIVTGIES
- conversion rate to (S)-1-benzyl-3-aminopyrrolidine [5]: 100%
- optical purity of generated (S)-1-benzyl-3-aminopyrrolidine [5]: 100 % e.e.
